Holding throughout (assay): NCI-60 cell line screen, 48 h
The test system of assay [1] is EKVX.
Assay [2] relates to HCT-116.
Assay [3] has as its system HOP-62.
For assay [4], the system named is HT-29.
Assay [5] has as its system IGROV-1.
For assay [6], the system named is LOX IMVI.
The test system of assay [7] is NCI-H23.
In assay [8] the test system is NCI-H522.
The subject of assay [9] is OVCAR-8.
The subject of assay [10] is RPMI-8226.
In assay [11] the test system is RXF 393.
In assay [12] the test system is SF-268.
Assay [13] deals with SF-539.
The subject of assay [14] is SK-MEL-5.
Assay [15] relates to SN12C.
Assay [16] relates to SNB-19.
The test system of assay [17] is SR.
In assay [18] the test system is SW-620.
For assay [19], the system named is UACC-257.
Assay [20] has as its system UACC-62.

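Exposure lasted 48 hours, with cells grown in 96-well plates and compounds tested at five concentrations. Here, GI50 denotes the concentration required for 50% inhibition of growth.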 Calls of active or inactive are those of the source. Cut-off read from the data, not from the text of the source: active = GI50 up to about 1.1 µM and inactive = higher. Where only a bound is given, the exact number is not on record here.

Regarding `Oc1cccc2ccc(Br)nc12`, the GI50 in [1], in assay [2], in [3], in assay [4], in assay [5] and in assay [6] was > 100 µM (inactive) throughout. Moreover, the GI50 was > 100 µM (inactive) in [7]; > 100 µM (inactive) in [8]; > 100 µM (inactive) in assay [9]; 97.9 µM (inactive) in assay [10]; > 100 µM (inactive) in assay [11]; > 100 µM (inactive) in assay [12]. Moreover, the GI50 was > 100 µM (inactive) in assay [13]; > 100 µM (inactive) in assay [14]; > 100 µM (inactive) in assay [15]; > 100 µM (inactive) in assay [16]; 62.4 µM (inactive) in [17]; > 100 µM (inactive) in assay [18]. For the same compound, the GI50 in [19] and in assay [20] was > 100 µM (inactive) in each case.

With `CCN(CC)c1ncnc2c1ncn2CCNC(CO)(CO)CO`, the GI50 in [1], in assay [2], in assay [3], in assay [4], in assay [5] and in [6] was > 100 µM (inactive) each time. The GI50 in assay [7], in assay [8], in [9], in assay [10], in [11] and in assay [12] was > 100 µM (inactive) throughout. The GI50 in [13], in [14], in assay [15], in assay [16], in assay [17] and in assay [18] was > 100 µM (inactive) in each case. Also, the GI50 in assay [19] and in assay [20] was > 100 µM (inactive) in each case.

In the case of `CS(=O)(=O)c1nc(Cl)c(Cl)c(C#N)c1Cl`, the GI50 was 6.27 µM (inactive) in assay [1]; 2.25 µM (inactive) in assay [2]; 19.3 µM (inactive) in [3]; 1.97 µM (inactive) in assay [4]; 6.59 µM (inactive) in assay [5]; 1.95 µM (inactive) in assay [6]. The GI50 in [7] was 1.32 µM (inactive); in assay [8], 0.322 µM (active); in assay [9], 2.88 µM (inactive); in assay [10], 2.32 µM (inactive); in assay [11] it was 1.61 µM (inactive); in [12] it was 6.76 µM (inactive). In addition, the GI50 in assay [13] was 4.48 µM (inactive); in assay [14] it was 5.12 µM (inactive); in assay [15] it was 2.27 µM (inactive); in [16] it was 19.8 µM (inactive); in assay [17], 0.736 µM (active); in [18] it was 1.14 µM (inactive). Besides, the values for the GI50 in [19] and in assay [20] were 2.49 µM (inactive) and 3.31 µM (inactive), respectively.

With `O=C(Nc1sccc1S(=O)(=O)c1ccccc1)c1cccnc1`, the GI50 was 48.9 µM (inactive) in assay [1]; 6.59 µM (inactive) in [2]; 21.9 µM (inactive) in assay [3]; 5.68 µM (inactive) in assay [4]; 9.02 µM (inactive) in assay [5]; 75.3 µM (inactive) in [6]. Besides, the GI50 in assay [7] is 27 µM (inactive); in assay [8] it was 7.98 µM (inactive); in assay [9] it was 22.7 µM (inactive); in assay [10] it was 7.52 µM (inactive); in assay [11], 14.9 µM (inactive); in assay [12], 57.4 µM (inactive). Also, the GI50 was 5.94 µM (inactive) in assay [13]; 3.61 µM (inactive) in [14]; 9.86 µM (inactive) in assay [15]; > 44.5 µM (inactive) in [16]; 5.2 µM (inactive) in [17]; 5.92 µM (inactive) in assay [18]. Further, the GI50 was 37.5 µM (inactive) in [19] and 14 µM (inactive) in assay [20].

Source of the values: ChEMBL document CHEMBL1201862, “PubChem BioAssay data set” (2004).
